Experimental data: US20120082658A1, “Methods for the Treatment of Allergic Diseases” (VentiRx Pharmaceuticals, Inc., priority 2010, published 2012)
Read-outs that look alike come from different tables or passages of the source.

How the values were obtained:
Format in all cases: cell-based
TLR6 = target: T1, TLR6 (Homo sapiens, UniProt Q9Y2C9); assay: HEK293 cells transfected with human TLR6, NF-κB driven reporter; settings: concentration up to 25 uM
T1 construct: expressed in transfected cells; host or cells: HEK293
T1 sequence (Q9Y2C9 32-796): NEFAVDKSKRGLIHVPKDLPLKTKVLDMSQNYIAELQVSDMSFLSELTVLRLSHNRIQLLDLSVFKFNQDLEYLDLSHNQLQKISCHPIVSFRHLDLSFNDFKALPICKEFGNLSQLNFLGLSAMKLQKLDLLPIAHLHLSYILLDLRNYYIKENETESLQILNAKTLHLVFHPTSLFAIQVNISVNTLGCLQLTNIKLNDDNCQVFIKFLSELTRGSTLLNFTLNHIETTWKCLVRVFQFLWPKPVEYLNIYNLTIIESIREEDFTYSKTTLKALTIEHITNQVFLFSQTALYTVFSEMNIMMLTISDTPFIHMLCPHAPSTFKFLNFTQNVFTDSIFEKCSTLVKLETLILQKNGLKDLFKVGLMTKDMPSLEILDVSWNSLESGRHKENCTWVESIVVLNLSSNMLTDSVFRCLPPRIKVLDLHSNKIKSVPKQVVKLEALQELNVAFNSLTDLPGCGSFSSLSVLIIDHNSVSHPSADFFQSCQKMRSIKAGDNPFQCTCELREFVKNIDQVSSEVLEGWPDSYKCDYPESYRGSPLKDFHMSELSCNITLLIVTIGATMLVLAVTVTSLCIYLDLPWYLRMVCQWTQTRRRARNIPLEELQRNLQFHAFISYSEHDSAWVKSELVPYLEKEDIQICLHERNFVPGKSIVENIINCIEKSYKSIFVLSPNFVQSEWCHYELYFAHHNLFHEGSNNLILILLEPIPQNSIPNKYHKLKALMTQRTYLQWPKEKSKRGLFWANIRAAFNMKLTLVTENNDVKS
Method: (§1) FIG. 8 is two graphs depicting the potency and selectivity of VTX-378 for TLR8. The half-maximal effective concentration (EC50) for VTX-378 activation of TLR8 and TLR7 was assessed in peripheral blood mononuclear cells (PBMCs) by the amount of secreted TNFα (A) and by the activity of NF-κB (B) from 15 healthy donors and also in HEK293 cells transfected with various human TLRs.
(§2) Preclinical studies were performed with VTX-378, the active pharmaceutical ingredient in VTX-1463. The specificity of VTX-378 for human TLR8 relative to other TLRs was assessed in transfected Human Embryonic Kidney 293 (HEK293) cells engineered to express individual TLRs (2-9) via transfection, and assessed using an NF-κB driven reporter system. […] The pharmacologic effects of VTX-378 were characterized in vitro using isolated human peripheral blood mononuclear cells (PBMCs).

TLR9 = target: T2, TLR9 (Homo sapiens, UniProt Q9NR96); assay: HEK293 cells transfected with human TLR9, NF-κB driven reporter; settings: concentration up to 25 uM
T2 construct: expressed in transfected cells; host or cells: HEK293
T2 sequence (Q9NR96 26-1032): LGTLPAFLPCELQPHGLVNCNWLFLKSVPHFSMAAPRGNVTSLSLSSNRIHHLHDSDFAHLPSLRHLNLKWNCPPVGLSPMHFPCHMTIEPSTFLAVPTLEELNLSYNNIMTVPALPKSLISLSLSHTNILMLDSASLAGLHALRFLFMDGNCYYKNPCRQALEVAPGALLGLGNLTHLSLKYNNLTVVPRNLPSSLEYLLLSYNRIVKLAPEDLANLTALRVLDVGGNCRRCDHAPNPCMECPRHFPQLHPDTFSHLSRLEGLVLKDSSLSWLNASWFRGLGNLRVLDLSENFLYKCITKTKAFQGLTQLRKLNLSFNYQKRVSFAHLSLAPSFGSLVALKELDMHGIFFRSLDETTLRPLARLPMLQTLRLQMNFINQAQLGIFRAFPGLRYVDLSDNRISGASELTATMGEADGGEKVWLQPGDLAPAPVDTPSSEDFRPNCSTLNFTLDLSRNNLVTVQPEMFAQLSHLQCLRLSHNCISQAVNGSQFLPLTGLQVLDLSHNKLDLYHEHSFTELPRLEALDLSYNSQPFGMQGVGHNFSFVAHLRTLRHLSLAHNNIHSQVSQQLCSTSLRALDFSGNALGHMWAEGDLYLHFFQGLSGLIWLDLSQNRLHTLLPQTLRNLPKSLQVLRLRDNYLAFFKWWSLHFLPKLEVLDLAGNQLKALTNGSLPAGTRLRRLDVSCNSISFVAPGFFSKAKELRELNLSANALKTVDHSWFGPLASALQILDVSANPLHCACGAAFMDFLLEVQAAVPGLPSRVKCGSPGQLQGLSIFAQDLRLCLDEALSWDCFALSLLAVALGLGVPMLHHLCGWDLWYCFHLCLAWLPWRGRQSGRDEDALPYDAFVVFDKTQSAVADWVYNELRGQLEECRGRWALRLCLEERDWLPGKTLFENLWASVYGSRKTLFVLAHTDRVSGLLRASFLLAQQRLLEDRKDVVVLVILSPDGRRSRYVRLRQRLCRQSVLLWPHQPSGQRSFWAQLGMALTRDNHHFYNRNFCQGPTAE
Method: as §1, §2

[1] = system: human peripheral blood mononuclear cells (PBMCs); assay: Cytokine production in isolated human PBMCs; settings: for EC50: Homo sapiens, PBMC
Method: as §2

For `CCCN(CCC)C(=O)C1=Cc2ccc(-c3ccc(C(=O)N4CCCC4)cc3)cc2N=C(N)C1` [VTX-378], the “activity on TLR6” value (TLR6) was “no detectable activity”, the “activity on TLR9” value (TLR9) was “no detectable activity” and the EC50 ([1]; analyte IL-10, read-out: EC50, IL-10 production) was 120 nM. The EC50 ([1]; analyte IL-12p40, read-out: EC50, IL-12p40 production) was 230 nM, the EC50 ([1]; analyte IL-12p70, read-out: EC50, IL-12p70 production) was 220 nM and the “Mean Mediator Level ± SEM, IL-10” value ([1]; VTX-378 1.6 uM) was 72 ± 29 pg/mL. For the same compound, the “Mean Mediator Level ± SEM, IL-12p70” value ([1]; VTX-378 1.6 uM) was 38 ± 10 pg/mL, the “Mean Mediator Level ± SEM, IL-12p40” value ([1]; VTX-378 1.6 uM, *p < 0.05 to Control) was 140 ± 32* pg/mL and the “production of Th-1 cytokines and chemokines including IL-12, IFN, MCP-1 and MIP-1β” value ([1]; incubation with isolated human PBMCs) was “stimulated PBMCs to produce”.
